Data taken from US20240279298A1 (BEIJING TUO JIE BIOPHARMACEUTICAL CO. LTD., priority 2021, published 2024).
Where a SMILES comes first, the peptide text is derived from it. [ ]: non-standard residue; d: D form. Aib = CC(C)(N)C(=O)O

Key:
[1] = system: insulin-induced hypoglycemia rat model; experiment: Efficacy in insulin-induced hypoglycemic rat model; type: in vivo, SD rats; conditions: for Blood glucose 60 min / Blood glucose 75 min / Blood glucose 90 min / Blood glucose 105 min: insulin 0.65 IU/kg at T0
Method: Male SD rats (Sprague-Dawley rats) aged 7-8 weeks were acclimatized for one week. […] The animals were deprived of food 4 hours before and during the experiment, but were provided with free access to water. After 4 hours of fasting, the blood glucose level at TO point was determined by tail blood sampling. The modeling groups were immediately administered with 0.65 IU/kg of insulin subcutaneously, and the non-modeling groups were administered with the same volume of normal saline subcutaneously.

[2] = system: normal rats (blood glucose); experiment: Efficacy in normoglycemic rat model; type: in vivo, SD rats; conditions: for Blood glucose 15 min / Blood glucose 30 min / Blood glucose 45 min / Blood glucose 60 min: normal rats; for Hyperglycemic efficacy (in words): normoglycemic rats, subcutaneous
Method: Male SD rats (Sprague-Dawley rats) aged 7-8 weeks were acclimatized for one week. […] The animals were deprived of food 4 hours before and during the experiment, but were provided with free access to water.

[3] = biological target: T1, human GLP-1R (Homo sapiens, UniProt P43220); experiment: Agonist activity assay for GLP-1R (cAMP HTRF); type: cell-based
T1 construct: expressed in transfected cells
T1 sequence (P43220 24-463): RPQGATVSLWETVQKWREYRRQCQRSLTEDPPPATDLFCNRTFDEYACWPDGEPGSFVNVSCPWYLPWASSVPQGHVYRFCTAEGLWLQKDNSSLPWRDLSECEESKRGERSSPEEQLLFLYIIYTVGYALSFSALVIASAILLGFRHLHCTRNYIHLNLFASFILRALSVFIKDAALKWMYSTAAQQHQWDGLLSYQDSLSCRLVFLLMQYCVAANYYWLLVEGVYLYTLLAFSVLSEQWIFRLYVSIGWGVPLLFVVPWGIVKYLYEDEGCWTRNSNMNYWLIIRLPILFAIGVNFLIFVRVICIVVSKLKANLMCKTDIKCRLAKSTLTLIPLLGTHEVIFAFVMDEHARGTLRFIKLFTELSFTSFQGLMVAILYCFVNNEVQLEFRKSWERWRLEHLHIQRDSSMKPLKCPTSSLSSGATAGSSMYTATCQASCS
Method: The activation of GCGR by related compounds will stimulate the formation of cyclic adenosine monophosphate (cAMP) in cells. Thus, the receptor activity can be monitored by cAMP production in proper cells expressing the receptor.
Agonist activity assay for GCGR: Cryopreserved stable CHO-K1/GCGR/CRE-Luc cells were taken from a liquid nitrogen tank, thawed in a 37° C. water bath, resuspended in DMEM/F12 medium (Sigma Cat #D8437), centrifuged, and seeded into T75 culture flasks. The cells were passaged at least once for subsequent tests. Before testing, the cells were trypsinized, centrifuged, washed once, and resuspended in serum-free DMEM/F12 medium. The cell density was adjusted, and the cells were plated in a 96-well plate at a density of 2,500 cells/5 μL/well. A 1×buffer solution in Cisbio-cAMP-Gs Dynamic kit was prepared, and IBMX was added at a final concentration of 0.5 mM. 5 μL of polypeptide serially diluted by buffer was added into each well, and the plate was shaken gently for mixing and incubated for 30 minutes at 37° C. cAMP-d2 and Anti-cAMP-Eu^3+-Cryptate were 20-fold diluted with cAMP Lysis and detection buffer respectively and mixed well. 5 μL of diluted cAMP-d2 solution and 5 μL of diluted Anti-cAMP-Eu^3+-Cryptate solution were sequentially added into each well. The mixture was mixed well by moderate vibration, and incubated for 1 hour at room temperature away from light.
Agonist activity assay for GLP-1R: The method differed from the method described above for the agonist activity assay for GCGR in that a stable CHO-GLP-1R cell line was used.

[4] = 6 nmol/kg subcutaneous at 45 min
[5] = 12 nmol/kg subcutaneous at 45 min
[6] = 20 nmol/kg subcutaneous at 45 min
[7] = 0.5 nmol/kg subcutaneous single dose
[8] = 2 nmol/kg subcutaneous single dose
[9] = 6 nmol/kg subcutaneous single dose

With CC(C)C[C@H](NC(=O)[C@H](Cc1ccc(O)cc1)NC(=O)[C@H](CCCCN)NC(=O)[C@H](CO)NC(=O)[C@H](Cc1ccc(O)cc1)NC(=O)[C@H](CC(=O)O)NC(=O)[C@H](CO)NC(=O)[C@@H](NC(=O)[C@H](Cc1ccccc1)NC(=O)[C@@H](NC(=O)CNC(=O)[C@H](CCC(N)=O)NC(=O)[C@H](CO)NC(=O)[C@@H](N)Cc1c[nH]cn1)[C@@H](C)O)[C@@H](C)O)C(=O)N[C@@H](CC(=O)O)C(=O)N[C@@H](CC(C)C)C(=O)NC(C)(C)C(=O)N[C@@H](CCCNC(=N)N)C(=O)N[C@@H](C)C(=O)N[C@@H](CCC(N)=O)C(=O)N[C@@H](CCC(=O)O)C(=O)N[C@@H](Cc1ccccc1)C(=O)N[C@H](C(=O)N[C@@H](CCC(N)=O)C(=O)N[C@@H](Cc1c[nH]c2ccccc12)C(=O)N[C@@H](CC(C)C)C(=O)N[C@@H](CCC(=O)O)C(=O)N[C@@H](CO)C(=O)N[C@H](C(=O)O)[C@@H](C)O)C(C)C [Compound 40] (H-HSQGTFTSDYSKYLDL[Aib]RAQEFVQWLEST-OH) the “Blood glucose 60 min” value [1, 4] was 6.65 mmol/L, the “Blood glucose 75 min” value [1, 4] was 9.05 mmol/L and the “Blood glucose 90 min” value [1, 4] was 7.08 mmol/L. For the same compound, the “Blood glucose 105 min” value [1, 4] was 6.99 mmol/L, the “Blood glucose 60 min” value [1, 5] was 7.40 mmol/L and the “Blood glucose 75 min” value [1, 5] was 9.50 mmol/L. The “Blood glucose 90 min” value [1, 5] was 9.13 mmol/L, the “Blood glucose 105 min” value [1, 5] was 8.63 mmol/L and the “Blood glucose 60 min” value [1, 6] was 6.87 mmol/L. For the same compound, the “Blood glucose 75 min” value [1, 6] was 9.68 mmol/L, the “Blood glucose 90 min” value [1, 6] was 9.28 mmol/L and the “Blood glucose 105 min” value [1, 6] was 9.00 mmol/L. For the same compound, the “Effect on raising blood glucose level (in words)” value ([1]; same dose (12 nmol/kg)) was “significantly better than that of Dasiglucagon and lasts longer”, the “Blood glucose 15 min” value [2, 7] was 9.45 mmol/L and the “Blood glucose 30 min” value [2, 7] was 8.55 mmol/L. The “Blood glucose 45 min” value [2, 7] was 6.93 mmol/L, the “Blood glucose 60 min” value [2, 7] was 6.10 mmol/L and the “Blood glucose 15 min” value [2, 8] was 8.60 mmol/L. The “Blood glucose 30 min” value [2, 8] was 9.52 mmol/L, the “Blood glucose 45 min” value [2, 8] was 8.35 mmol/L and the “Blood glucose 60 min” value [2, 8] was 6.40 mmol/L. The “Blood glucose 15 min” value [2, 9] was 9.63 mmol/L, the “Blood glucose 30 min” value [2, 9] was 10.22 mmol/L and the “Blood glucose 45 min” value [2, 9] was 8.83 mmol/L. For the same compound, the “Blood glucose 60 min” value [2, 9] was 7.10 mmol/L, the “Hyperglycemic efficacy (in words)” value ([2]; listed as Glucagon analog 40) was “raised the blood glucose level in rats in a dose-dependent manner” and the “Hyperglycemic efficacy (in words)” value ([2]; listed as glucagon analog 40) was “significantly better than that of Dasiglucagon”. For the same compound, the “GLP-1R % Activity relative to native GLP-1” value [3] was 0.192%.
